Assay results published in the supplement of paper PMC4862054.

Columns and labels:
Experiment in all cases: normalised response (% of control), CellTiter-Glo; higher = more viable cells (100 = DMSO, 0 = benzethonium chloride kill control)
Details in all cases: incubation time: 72 h
[1] = system: MDA-MB-453
Method in brief: (§1)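 Plates were normalised with 0.1 % DMSO as 100 and a positive kill control as 0. Breast cancer cell lines in 20 µl suspension had been seeded into 384-well plates with compound at 5 concentrations in 10-fold steps over a compound-specific 10,000-fold range, incubated 72 h, and read for CellTox Green fluorescence (485/520 nm) followed by CellTiter-Glo luminescence. Each value is the normalised signal at a single concentration.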

[2] = system: MFM-223
Method in brief: as §1

[3] = system: DU-4475
Method in brief: as §1

[4] = system: BT-474
Method in brief: as §1

[5] = system: CAL-51
Method in brief: as §1

[6] = system: HDQ-P1
Method in brief: as §1

[7] = system: MDA-MB-436
Method in brief: as §1

[8] = system: BT-549
Method in brief: as §1

[9] = system: HCC1937
Method in brief: as §1

[10] = system: MDA-MB-231
Method in brief: as §1

[11] = system: HCC1599
Method in brief: as §1

[12] = system: Hs578T
Method in brief: as §1

[13] = system: HCC1143
Method in brief: as §1

[14] = system: SK-BR-3
Method in brief: as §1

[15] = system: MCF-10A
Method in brief: as §1

[16] = system: CAL-120
Method in brief: as §1

[17] = system: MDA-MB-468
Method in brief: as §1

[18] = system: CAL-148
Method in brief: as §1

[19] = system: CAL-85-1
Method in brief: as §1

## N#CCNC(=O)c1ccc(-c2ccnc(Nc3ccc(N4CCOCC4)cc3)n2)cc1 [Momelotinib] (1 nM)
[1]
  normalised response: 91.9%
[2]
  normalised response: 92.3%
[3]
  normalised response: 95.3%
[4]
  normalised response: 89.8%
[5]
  normalised response: 128%
[6]
  normalised response: 100%
[7]
  normalised response: 97.8%
[8]
  normalised response: 95.1%
[9]
  normalised response: 97.7%
[10]
  normalised response: 97.2%
[11]
  normalised response: 94.7%
[12]
  normalised response: 97.2%
[13]
  normalised response: 97.6%
[14]
  normalised response: 95.8%
[15]
  normalised response: 90.4%
[16]
  normalised response: 96.9%
[17]
  normalised response: 98.2%
[18]
  normalised response: 94.2%
[19]
  normalised response: 94.6%

## N#CCNC(=O)c1ccc(-c2ccnc(Nc3ccc(N4CCOCC4)cc3)n2)cc1 [Momelotinib] (10 nM)
[1]
  normalised response: 89.5%
[2]
  normalised response: 94.2%
[3]
  normalised response: 97.2%
[4]
  normalised response: 94.2%
[5]
  normalised response: 80.9%
[6]
  normalised response: 103%
[7]
  normalised response: 101%
[8]
  normalised response: 99.6%
[9]
  normalised response: 96.8%
[10]
  normalised response: 97.4%
[11]
  normalised response: 89.8%
[12]
  normalised response: 104%
[13]
  normalised response: 100%
[14]
  normalised response: 115%
[15]
  normalised response: 103%
[16]
  normalised response: 95.1%
[17]
  normalised response: 92.8%
[18]
  normalised response: 94.9%
[19]
  normalised response: 97.1%

## CC1(C)NC(=O)N(c2ccc([N+](=O)[O-])c(C(F)(F)F)c2)C1=O [Nilutamide] (10 nM)
[1]
  normalised response: 103%
[2]
  normalised response: 112%
[3]
  normalised response: 109%
[4]
  normalised response: 105%
[5]
  normalised response: 127%
[6]
  normalised response: 95.6%
[7]
  normalised response: 110%
[8]
  normalised response: 105%
[9]
  normalised response: 101%
[10]
  normalised response: 102%
[11]
  normalised response: 113%
[12]
  normalised response: 99.1%
[13]
  normalised response: 101%
[14]
  normalised response: 117%
[15]
  normalised response: 110%
[16]
  normalised response: 97.9%
[17]
  normalised response: 93.3%
[18]
  normalised response: 112%
[19]
  normalised response: 96%

## CCCCCCCCCCCCCCCCCCOP(=O)([O-])OC1CC[N+](C)(C)CC1 [Perifosine] (0.25 nM)
[1]
  normalised response: 105%
[2]
  normalised response: 92.3%
[3]
  normalised response: 92.7%
[4]
  normalised response: 99.4%
[5]
  normalised response: 102%
[6]
  normalised response: 106%
[7]
  normalised response: 116%
[8]
  normalised response: 107%
[9]
  normalised response: 98.8%
[10]
  normalised response: 99.6%
[11]
  normalised response: 113%
[12]
  normalised response: 108%
[13]
  normalised response: 103%
[14]
  normalised response: 92.3%
[15]
  normalised response: 101%
[16]
  normalised response: 108%
[17]
  normalised response: 99%
[18]
  normalised response: 99.2%
[19]
  normalised response: 96.5%

## CCCCCCCCCCCCCCCCCCOP(=O)([O-])OC1CC[N+](C)(C)CC1 [Perifosine] (2.5 nM)
[1]
  normalised response: 101%
[2]
  normalised response: 92.8%
[3]
  normalised response: 94.7%
[4]
  normalised response: 104%
[5]
  normalised response: 81%
[6]
  normalised response: 108%
[7]
  normalised response: 95.2%
[8]
  normalised response: 99.5%
[9]
  normalised response: 101%
[10]
  normalised response: 100%
[11]
  normalised response: 61.5%
[12]
  normalised response: 98.9%
[13]
  normalised response: 102%
[14]
  normalised response: 92.8%
[15]
  normalised response: 98.4%
[16]
  normalised response: 102%
[17]
  normalised response: 97.4%
[18]
  normalised response: 95.9%
[19]
  normalised response: 101%

## Cc1ccc(C(=O)Nc2ccc(CN3CCN(C)CC3)c(C(F)(F)F)c2)cc1C#Cc1cnc2cccnn12 [Ponatinib] (1 nM)
[1]
  normalised response: 98.2%
[2]
  normalised response: 99.5%
[3]
  normalised response: 100%
[4]
  normalised response: 104%
[5]
  normalised response: 101%
[6]
  normalised response: 104%
[7]
  normalised response: 108%
[8]
  normalised response: 106%
[9]
  normalised response: 98.4%
[10]
  normalised response: 97.2%
[11]
  normalised response: 103%
[12]
  normalised response: 97.3%
[13]
  normalised response: 97.1%
[14]
  normalised response: 99.4%
[15]
  normalised response: 103%
[16]
  normalised response: 106%
[17]
  normalised response: 107%
[18]
  normalised response: 99.5%
[19]
  normalised response: 108%

## CS(=O)(=O)c1ccc(C2=C(c3ccccc3)C(=O)OC2)cc1 [Rofecoxib] (1 nM)
[1]
  normalised response: 98.5%
[2]
  normalised response: 111%
[3]
  normalised response: 106%
[4]
  normalised response: 103%
[5]
  normalised response: 69.4%
[6]
  normalised response: 101%
[7]
  normalised response: 103%
[8]
  normalised response: 106%
[9]
  normalised response: 107%
[10]
  normalised response: 104%
[11]
  normalised response: 99.1%
[12]
  normalised response: 104%
[13]
  normalised response: 110%
[14]
  normalised response: 112%
[15]
  normalised response: 114%
[16]
  normalised response: 98.6%
[17]
  normalised response: 108%
[18]
  normalised response: 108%
[19]
  normalised response: 98.4%

## N[C@@H](CSC(c1ccccc1)(c1ccccc1)c1ccccc1)C(=O)O [S-trityl-L-cysteine] (40 nM)
[1]
  normalised response: 95%
[2]
  normalised response: 107%
[3]
  normalised response: 101%
[4]
  normalised response: 96.7%
[5]
  normalised response: 131%
[6]
  normalised response: 119%
[7]
  normalised response: 103%
[8]
  normalised response: 99.2%
[9]
  normalised response: 93.8%
[10]
  normalised response: 90.4%
[11]
  normalised response: 109%
[12]
  normalised response: 94.3%
[13]
  normalised response: 92.7%
[14]
  normalised response: 97.5%
[15]
  normalised response: 105%
[16]
  normalised response: 102%
[17]
  normalised response: 98.5%
[18]
  normalised response: 97.5%
[19]
  normalised response: 104%

## CC(=O)Nc1ccc(C(=O)Nc2ccccc2N)cc1 [Tacedinaline] (0.1 nM)
[1]
  normalised response: 104%
[2]
  normalised response: 97.1%
[3]
  normalised response: 100%
[4]
  normalised response: 102%
[5]
  normalised response: 113%
[6]
  normalised response: 94.2%
[7]
  normalised response: 101%
[8]
  normalised response: 99.5%
[9]
  normalised response: 98.4%
[10]
  normalised response: 98.9%
[11]
  normalised response: 100%
[12]
  normalised response: 96.7%
[13]
  normalised response: 92.9%
[14]
  normalised response: 105%
[15]
  normalised response: 98.4%
[16]
  normalised response: 92.1%
[17]
  normalised response: 105%
[18]
  normalised response: 93.2%
[19]
  normalised response: 104%

## CC(=O)Nc1ccc(C(=O)Nc2ccccc2N)cc1 [Tacedinaline] (1 nM)
[1]
  normalised response: 103%
[2]
  normalised response: 101%
[3]
  normalised response: 97.6%
[4]
  normalised response: 105%
[5]
  normalised response: 124%
[6]
  normalised response: 98.9%
[7]
  normalised response: 101%
[8]
  normalised response: 96.2%
[9]
  normalised response: 92.7%
[10]
  normalised response: 97.6%
[11]
  normalised response: 109%
[12]
  normalised response: 96%
[13]
  normalised response: 99.5%
[14]
  normalised response: 97.1%
[15]
  normalised response: 93.5%
[16]
  normalised response: 97.9%
[17]
  normalised response: 98.3%
[18]
  normalised response: 95.3%
[19]
  normalised response: 95.8%

## O=C1CCC(N2C(=O)c3ccccc3C2=O)C(=O)N1 (centres undefined) [Thalidomide] (10 nM)
[1]
  normalised response: 96.3%
[2]
  normalised response: 97.5%
[3]
  normalised response: 97.2%
[4]
  normalised response: 94%
[5]
  normalised response: 65.4%
[6]
  normalised response: 96.1%
[7]
  normalised response: 95.8%
[8]
  normalised response: 99.7%
[9]
  normalised response: 95.3%
[10]
  normalised response: 98.4%
[11]
  normalised response: 102%
[12]
  normalised response: 100%
[13]
  normalised response: 97.3%
[14]
  normalised response: 98.9%
[15]
  normalised response: 100%
[16]
  normalised response: 94.2%
[17]
  normalised response: 91.9%
[18]
  normalised response: 92.6%
[19]
  normalised response: 100%
